Test results from patent US9540615B2, “Combined chemical and genetic approaches for generation of induced pluripotent stem cells” (The Scripps Research Institute, priority 2008, dated 2017).

Experiments:
Format in all cases: cell-based, mouse
[1] = test system: primary OG2 neural progenitor cells; test: iPS cell induction from neural progenitor cells by retroviral transduction and BIX01294 treatment
Procedure: The reporter neural progenitor cells were generated using a well established protocol by differentiating the Oct4-GiP mESCs grown in monolayer on gelatin in a chemically defined medium/CDM condition in the absence of serum and other growth factors/cytokines at low cell density for eight days, followed by neurophere formation and subsequent serial passaging in single cells in neural cell expansion media supplemented with 10 ng/ml of bFGF and EGF in monolayer for over six passages/24 days. The resulting neural progenitor cells were homogenous by cell morphology and neural marker expression, and were confirmed to be GFP negative and puromycin sensitive. Such neural progenitor cells plated in monolayer in conventional mESC growth media were transduced with combinations of four, three, or two of the four factors, followed by treating the transduced cells with individual small molecules from a small known drug collection in a typical 6-well format. The compound treatment and culture were continued for additional ten days before puromycin was added. The number of green and puro-resistant colonies was counted at day 14. In comparison to the only four-gene transduced neural cells as the positive control, compound conditions that generated more green colonies than the corresponding gene-only conditions were picked as primary hits. To further confirm these primary hit conditions, we chose to use a late passage of mouse CNS neural progenitor cells (Do, J. T. et al., Stem Cells 25, 1013-1020 (2007)) that were derived from fetal brain of OG2^+/−/ROSA26^+/− transgenic mice (which contain an Oct4-GFP reporter) and expanded in monolayer under the same neural CDM condition as the above with 10 ng/ml of bFGF and EGF. Such cells truly from a non-pluripotent tissue would be devoid of concerns of any contaminating ES cell in the above screening system, which is although highly unlikely with all appropriate controls. Similar culture conditions and reprogramming assays were performed using the OG2 neural progenitor cells except that puromycin was not used and green colonies were picked out and characterized by staining of Nanog, SSEA1 and ALP.
mESC-derived or primary OG2 mouse neural progenitor cells were plated into Matrigel (1:50, BD Biosciences) coated 6-well plates at 3.5×10^4 cells/well in the neural progenitor cell expansion media. After one day these cells were transduced with retrovirus for overnight, and the medium was changed into the mESC growth media [DMEM, 5% FBS, 10% KSR, 1× non-essential amino acids (Gibco), 2 mM L-glutamine (Gibco), 0.1 mM β-mercaptoethanol (Gibco) and 10^3 unit/ml LIF (Chemicon)] with or without BIX01294 (0.5-1 μM). GFP-positive iPS cell colonies appeared after 9-14 days, and were picked out and expanded on MEF feeder cells with the mESC growth media.

[2] = test system: OG2 MEFs transduced with OK (Oct4 and Klf4); test: iPSC generation from OK-transduced OG2 MEFs (GFP+ colonies), including second synergist screen with BIX; conditions: OK transduced OG2 MEFs; 3 independent experiments, standard deviation; OK alone 0.5±0.7
Procedure: Primary 129S2/SvPasCrlf (primary screen) or ROSA26^+/−/OG2^+/− (secondary screen) MEFs were plated onto Matrigel (1:50; BD Biosciences, Bedford, Mass.) coated dishes at a density of 3.5×10^4 cells per well of a 6-well plate. Twenty-four hours later, these cells were transduced overnight with defined retroviruses at 37° C., 5% CO2. Twelve to fourteen hours later, the media on the transduced cells was changed to mESC medium [Knockout DMEM, 10% ES-qualified FBS, 10% Knockout serum replacement, 1% Glutamax, 1% Non-essential amino acids, penicillin/streptomycin, 0.1 mM β-mercaptoethanol, 1% EmbryoMax ESC Qualified Nucleosides (Millipore, Temecula, Calif.), and 10^3 U/ml LIF (Millipore)] (all products were from Invitrogen, Carlsbad, Calif., except where mentioned). On that same day, individual small molecules from our known drug collection were added to the cells at a range between 0.5 and 2 μM. Compound treatment was continued for 10-14 days; the cells were fixed and stained on day 14-21 using a standard ALP detection kit (Millipore). For the second screen, 1 μM BIX was added to the mESC medium 1 day after transduction. Five days later, in addition to 1 μM BIX, individual small molecule from the known drug collection was added to each well, at a range between 0.5 and 2 μM. Mouse ESC media with defined small molecules was refreshed every three days until colonies with a similar morphology to mESCs were observed, which was usually between 14-21 days after transduction. […] Further characterization studies and repeats were carried either on primary 129S2/SvPasCrlf or ROSA26^+/−/OG2^+/− MEFs. When ROSA26^+/−/OG2^+/− MEFs were used, the iPSC colonies could also be identified through GFP expression, as a marker of Oct4 expression. Once iPSC colonies were identified, they were picked for expansion on MEF feeder cells in mESC medium.

[3] = test system: mES R1 cells; test: Proliferation assay; conditions: 2 μM BayK, 1 μM BIX or both; 15, 24 and 48 hours; compared to DMSO, n=3
Procedure: mES R1 cells were plated onto gelatin-coated 6-well plates at a density of 2×10^5 cells/well in complete mES cell media. Upon cell attachment, app. 12 hours, the cells were treated either with DMSO, 1 μM BIX, 2 μM BayK, and a combination of both, in triplicate. At 15, 24 and 48 hours, the cells were detached using trypsin, and counted using a hemocytometer. Trypan blue (Sigma-Aldrich, St. Louis, Mo.) was used for dead cell exclusion.

COc1cc2nc(N3CCCN(C)CC3)nc(NC3CCN(Cc4ccccc4)CC3)c2cc1OC [BIX01294]
reprogramming efficiency ([1]; Klf4/Sox2/cMyc with BIX01294, absence of Oct4 expression): relatively low | kinetics of reprogramming ([1]; Oct4/Klf4 viral transduction, BIX01294 0.5-1 μM): didn't significantly shorten the kinetics of reprogramming | reprogramming efficiency (GFP+ iPS cell colonies) ([1]; Oct4/Klf4 viral transduction, BIX01294 0.5-1 μM, 3.5×10^4 cells/well): significantly improve the reprogramming efficiency to or higher than the level of using viral transduction of all four factors | time until GFP+ iPS cell colonies appeared ([1]; after transduction with Oct4/Klf4 retroviruses and BIX01294 treatment): 12 days | generation of iPS cells ([1]; viral transduction of Klf4, Sox2 and cMyc, absence of Oct4 expression, three factors alone gave no colony): can also generate iPS cells | number of GFP+ colonies (reprogramming efficiency) [2]: 2.5±0.7 colonies per 3.5×10^4 cells | proliferation of mES cells (cell number) [3]: No significant difference
